# Assay results as given in US20100063085A1, “METHOD OF TREATING LEARNING IMPAIRMENT IN DOWN'S SYNDROME SUBJECTS” (University Court of The University of Dundee, priority 2008, published 2010).
# Like-named read-outs stand apart in the source and are kept apart here.
# Tests used:
# CHK2 = CHK2 (Homo sapiens, UniProt O96017); assay: CHK2 33P kinase assay; type: biochemical; conditions: read-out: CHK2 activity as percentage of control without inhibitor
# Description: (§1) All assays (25.5 μl) were carried out at room temperature (21° C.) and were linear with respect to time and enzyme concentrations under the conditions used. Assays were performed for 30 minutes except assays for LCK and PKB which were performed for 15 minutes using Multidrop Micro reagent dispensers (Thermo Electron Corporation, Waltham, Mass. 02454, USA) in a 96-well format. The concentration of […] [γ-^33P] ATP (800 cpm/pmol) in the assays was one of three concentrations (5, 20 or 50 μM) in order to be at or below Km for ATP for the enzyme. Assays were initiated with MgATP and stopped by addition of 5 μl of 0.5M orthophosphoric acid. Assays were then harvested onto P81 filterplates using a unifilter harvester (PerkinElmer, Boston, Mass. 02118, USA), with a wash buffer of 50 mM orthophosphoric acid. Filterplates were then air dried overnight. 10 μl of Microscint O was added per well prior to counting for radioactivity.
# MKK1, JNK/SAPK1c, SAPK2a/p38, SAPK2b/p38β2, SAPK3/p38γ, SAPK4/p38δ, MAPK2/ERK2, MAPKAP-K1β, MAPKAP-K2, MSK1, PRAK, PKA, PKCα, PDK1, SGK, p70S6K, GSK3β, ROCK-II, PRK2, AMPK, CHK1, CHK2, CK2, PHK, LCK, were assayed according to Davies et al., (Davies, S. P., Reddy, H., Caivano, M. and Cohen, P. Biochem. J. 351, 95-105, 2000.
# CSK and CDK2/cyclinA, were assayed according to Bain et al. (Bain J, McLauchlan H, Elliott M, Cohen P. Biochem J. 371, 199-204, 2003., except that ATP concentrations were either 5, 20 or 50 micromolar so that they were at or below the Km for ATP. The ATP concentrations used were as follows, 5 μM for assays of MKK1, SAPK3, SAPK4, GSK3β, PRK2 CK2 20 μm for assays of JNK, SAPK2β, MAPKAP-K2, MSK1, PRAK, PKA, […], PDK1, SGK, p70S6K, ROCK-II, CHK1, CHK2, CSK, CDK2, and 50 μM for assays of SAPK2a, MAPK2/ERK2, AMPK, LCK, PHK and MAPKAP-K1β.
# PKD1 = biological target: T1, PKD1 (Homo sapiens, UniProt Q15139); assay: PKD1 33P kinase assay; type: biochemical; conditions: read-out: PKD1 activity as percentage of control without inhibitor
# T1 sequence (Q15139 1-912): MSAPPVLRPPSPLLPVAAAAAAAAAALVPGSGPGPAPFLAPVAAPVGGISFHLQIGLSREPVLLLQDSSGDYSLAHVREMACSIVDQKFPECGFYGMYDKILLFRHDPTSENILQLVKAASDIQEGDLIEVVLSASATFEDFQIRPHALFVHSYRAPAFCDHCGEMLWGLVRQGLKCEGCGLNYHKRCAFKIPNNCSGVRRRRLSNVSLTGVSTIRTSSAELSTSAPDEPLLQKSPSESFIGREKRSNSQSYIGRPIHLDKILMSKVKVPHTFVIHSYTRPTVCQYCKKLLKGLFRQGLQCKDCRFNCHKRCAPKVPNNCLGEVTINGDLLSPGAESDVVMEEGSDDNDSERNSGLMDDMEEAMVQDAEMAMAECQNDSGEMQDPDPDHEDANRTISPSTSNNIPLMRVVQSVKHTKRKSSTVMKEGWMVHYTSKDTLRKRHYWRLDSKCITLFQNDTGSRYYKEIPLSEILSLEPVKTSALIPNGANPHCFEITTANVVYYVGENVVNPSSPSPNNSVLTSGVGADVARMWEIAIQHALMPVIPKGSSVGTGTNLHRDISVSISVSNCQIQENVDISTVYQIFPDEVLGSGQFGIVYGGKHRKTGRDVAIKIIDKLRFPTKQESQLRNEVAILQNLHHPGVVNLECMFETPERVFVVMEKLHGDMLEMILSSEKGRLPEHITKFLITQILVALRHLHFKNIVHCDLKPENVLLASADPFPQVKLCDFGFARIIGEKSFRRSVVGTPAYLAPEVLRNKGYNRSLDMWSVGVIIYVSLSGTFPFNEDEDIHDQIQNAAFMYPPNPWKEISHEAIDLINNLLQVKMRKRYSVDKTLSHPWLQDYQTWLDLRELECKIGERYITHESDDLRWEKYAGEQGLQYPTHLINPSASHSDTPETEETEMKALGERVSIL
# Description: as §1
# The following kinases were assayed against the substrates indicated. Aurora B was assayed against the substrate peptide […] (300 μM), ERK8 and MST-2 were both assayed against MBP (0.33 mg/ml). IKKβ was assayed against the substrate peptide […] (300 μM), JNK3 was assayed against 3 μM ATF2[19-96]. MAPKAP-K3 and PKD1 were both assayed against […] (30 μM), MARK3 was assayed against CHKtide ([…]) substrate peptide (300 μM). MNK1 and MNK2 were both assayed against eIF4E protein (0.5 mg/ml). NEK7 was assayed against […] (300 μM), PIM2 was assayed against […] (300 μM), ΔPH PKBβ-S474D was assayed against Crosstide (30 μM), PLK1 was assayed against […] (300 μM). PRK2 was assayed against Long S6 peptide, […] (30 μM), RSK2 was assayed against […] (30 μM), SRC was assayed against cdc2 peptide, […], (300 μM) and SRPK1 was assayed against peptide […] (300 μM). All enzymes were diluted in 50 mM Tris/HCl pH 7.5, 0.1 mM EGTA, 1 mg/ml BSA, 0.1% β-mercaptoethanol buffer and assayed in an incubation containing 50 mM Tris/HCl pH7.5, 0.1 mM EGTA, 0.1% β-mercaptoethanol, CAMK-1 (5-20 mU) diluted in 50 mM Tris/HCl pH 7.5, 0.1 mM EGTA, 1 mg/ml BSA, 0.1% β-mercaptoethanol is assayed against substrate peptide […] in an incubation containing 50 mM Tris/HCl pH 7.5, 0.1 mM EGTA, 0.5 mM CaCl2, 0.3 μM calmodulin, 0.1% β-mereaptoethanol, 300 μM substrate peptide, 10 mM magnesium acetate and 0.05 mM [^33P-γ-ATP] (500-1000 cpm/pmole). EF2K (5-20 mU) diluted in 50 mM Hepes pH 6.6, 0.1% β-mercaptoethanol, 1 mg/ml BSA is assayed against a substrate peptide […] in an incubation containing 50 mM Hepes pH 6.6, 0.2 mM CaCl2, 0.3 μM Calmodulin, 0.05% b-mercaptoethanol, 300 μM substrate peptide, 10 mM magnesium acetate and 0.05 mM [^33P-γ-ATP] (500-1000 cpm/pmole).
# Chain of CHK2 (O96017 whole entry, species assumed): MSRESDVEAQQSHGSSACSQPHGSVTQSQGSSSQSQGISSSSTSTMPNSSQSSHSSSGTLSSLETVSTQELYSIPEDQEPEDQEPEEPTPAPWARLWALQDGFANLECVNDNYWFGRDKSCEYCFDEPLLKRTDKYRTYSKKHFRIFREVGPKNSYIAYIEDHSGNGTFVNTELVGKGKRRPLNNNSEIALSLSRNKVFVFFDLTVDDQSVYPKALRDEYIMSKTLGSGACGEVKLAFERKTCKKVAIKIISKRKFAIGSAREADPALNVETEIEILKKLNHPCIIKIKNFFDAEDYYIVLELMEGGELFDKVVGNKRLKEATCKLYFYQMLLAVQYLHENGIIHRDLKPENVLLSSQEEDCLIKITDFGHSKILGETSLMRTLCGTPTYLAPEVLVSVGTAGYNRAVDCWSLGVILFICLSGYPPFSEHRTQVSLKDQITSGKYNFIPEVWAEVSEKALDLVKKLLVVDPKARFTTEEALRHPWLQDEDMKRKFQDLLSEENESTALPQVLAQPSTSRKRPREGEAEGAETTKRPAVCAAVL
compound,measurement,setting,value
COc1ccc2c3c([nH]c2c1)C(C)=NCC3 [Harmaline],remaining activity at 1 µM,CHK2; inhibitor 1 μM,89%
same,remaining activity at 10 µM,CHK2; inhibitor 10 μM,89%
same,remaining activity at 1 µM,PKD1; inhibitor 1 μM,99%
same,remaining activity at 10 µM,PKD1; inhibitor 10 μM,101%
CC1=NCCc2c1[nH]c1cc(O)ccc21 [Harmalol],remaining activity at 1 µM,CHK2; inhibitor 1 μM,76%
same,remaining activity at 10 µM,CHK2; inhibitor 10 μM,57%
same,remaining activity at 1 µM,PKD1; inhibitor 1 μM,75%
same,remaining activity at 10 µM,PKD1; inhibitor 10 μM,21%
COc1ccc2c(c1)[nH]c1c(C)nccc12 [Harmine],remaining activity at 1 µM,CHK2,78%
same,remaining activity at 10 µM,CHK2,79%
same,remaining activity at 1 µM,PKD1,86%
same,remaining activity at 10 µM,PKD1,53%
